US20260183297A1, “SELECTION OF PATIENTS FOR THE TREATMENT OF FADS1-MEDIATED DISEASES OR DISORDERS USING FADS-1 INHIBITORS” (AMGEN INC., priority 2022, published 2026)
Marks after values point to notes of the source that are not given here.

Test: Fatty acid concentration and composition of plasma lipid subfractions (GC) of Compound A-treated DIO mice
Format: in vivo, mouse
Conditions: DIO mouse plasma, 30 mg/kg, GC
Description: FIG. 16(b) provides fatty acid composition of total plasma and each of the 4 plasma lipid subfractions of vehicle treated (WT) and 30 mg/kg Compound A-treated WT DIO mice (WT+A). (a-b) n=3 samples per group (each sample pooled from 2 mice). (a) Data are shown as minimum to maximum. t-test *P<0.05, **P<0.01, ***P<0.001.

[1] = Phospholipids, mean % composition
[2] = Total lipids, mean % composition
[3] = Triglycerides, mean % composition

COc1ccn2c(=O)c(-c3cnn(CC(F)(F)C(F)(F)F)c3)c(C(F)(F)F)nc2c1 [Compound A, 8-methoxy-3-(1-(2,2,3,3,3-pentafluoropropyl)-1H-pyrazol-4-yl)-2-(trifluoromethyl)-4H-pyrido[1,2-a]pyrimidin-4-one]
C16:1n7t composition, Phospholipids [1]: 0.05% | C18:0 composition, Phospholipids [1]: 14.4*** % | C18:1n9 composition, Phospholipids [1]: 12.3** % | C18:1t composition, Phospholipids [1]: 0.18% | C18:2n6 composition, Phospholipids [1]: 19.0% | C18:2n6t composition, Phospholipids [1]: 0.22** % | C18:3n3 composition, Phospholipids [1]: 0.05% | C18:3n6 composition, Phospholipids [1]: 0.2* % | C20:0 composition, Phospholipids [1]: 0.07* % | C20:1n9 composition, Phospholipids [1]: 0.28% | C20:2n6 composition, Phospholipids [1]: 0.43* % | C20:3n6 composition, Phospholipids [1]: 18.2*** % | C20:4n6 composition, Phospholipids [1]: 1.49*** % | C20:5n3 composition, Phospholipids [1]: 0.06* % | C22:0 composition, Phospholipids [1]: 0.08% | C22:4n6 composition, Phospholipids [1]: 0.10*** % | C22:5n3 composition, Phospholipids [1]: 0.61% | C22:5n6 composition, Phospholipids [1]: 0.09** % | C22:6n3 composition, Phospholipids [1]: 3.33*** % | C24:0 composition, Phospholipids [1]: 0.04% | C24:1n9 composition, Phospholipids [1]: 0.16% | C14:0 concentration, Total (Total lipids, mean): 7.7 µg/mL | C16:0 concentration, Total (Total lipids, mean): 635 µg/mL | C16:1n7 concentration, Total (Total lipids, mean): 41.4 µg/mL | C18:0 concentration, Total (Total lipids, mean): 285** μg mL^−1 | C18:1n9 concentration, Total (Total lipids, mean): 478 µg/mL | C18:1t concentration, Total (Total lipids, mean): 3.6 µg/mL | C18:2n6 concentration, Total (Total lipids, mean): 870 µg/mL | C18:2n6t concentration, Total (Total lipids, mean): 6.0 µg/mL | C18:3n3 concentration, Total (Total lipids, mean): 5.9** μg mL^−1 | C18:3n6 concentration, Total (Total lipids, mean): 23.3** μg mL^−1 | C20:0 concentration, Total (Total lipids, mean): 2.3** μg mL^−1 | C20:1n9 concentration, Total (Total lipids, mean): 8.4 µg/mL | C20:3n6 concentration, Total (Total lipids, mean): 465*** μg mL^−1 | C20:4n6 concentration, Total (Total lipids, mean): 92.3** μg mL^−1 | C20:5n3 concentration, Total (Total lipids, mean): 2.7** μg mL^−1 | C22:0 concentration, Total (Total lipids, mean): 3.3** μg mL^−1 | C22:4n6 concentration, Total (Total lipids, mean): 2.1*** μg mL^−1 | C22:5n3 concentration, Total (Total lipids, mean): 2.8*** μg mL^−1 | C22:5n6 concentration, Total (Total lipids, mean): 2.4*** μg mL^−1 | C22:6n3 concentration, Total (Total lipids, mean): 98.5** μg mL^−1 | C24:1n9 concentration, Total (Total lipids, mean): 6.9 µg/mL | Total fatty acids concentration, Total (Total lipids, mean): 3058* μg mL^−1 | C14:0 composition, Total [2]: 0.25% | C16:0 composition, Total [2]: 20.8% | C16:1n7 composition, Total [2]: 1.35% | C16:1n7t composition, Total [2]: 0.1% | C18:0 composition, Total [2]: 9.3% | C18:1n9 composition, Total [2]: 15.7% | C18:1t composition, Total [2]: 0.12% | C18:2n6 composition, Total [2]: 28.5% | C18:2n6t composition, Total [2]: 0.2% | C18:3n3 composition, Total [2]: 0.19% | C18:3n6 composition, Total [2]: 0.76% | C20:0 composition, Total [2]: 0.08% | C20:1n9 composition, Total [2]: 0.27% | C20:2n6 composition, Total [2]: 0.32% | C20:3n6 composition, Total [2]: 15.2% | C20:4n6 composition, Total [2]: 3.01% | C20:5n3 composition, Total [2]: 0.09*** % | C22:0 composition, Total [2]: 0.11% | C22:4n6 composition, Total [2]: 0.07*** % | C22:5n3 composition, Total [2]: 0.09*** % | C22:5n6 composition, Total [2]: 0.08*** % | C22:6n3 composition, Total [2]: 3.22% | C24:0 composition, Total [2]: 0.06% | C24:1n9 composition, Total [2]: 0.23** % | C14:0 concentration, Triglycerides (Triglycerides, mean): 26.7 µg/mL | C16:0 concentration, Triglycerides (Triglycerides, mean): 135 µg/mL | C16:1n7 concentration, Triglycerides (Triglycerides, mean): 6.2 µg/mL | C16:1n7t concentration, Triglycerides (Triglycerides, mean): 0.7 µg/mL | C18:0 concentration, Triglycerides (Triglycerides, mean): 80.4 µg/mL | C18:1n9 concentration, Triglycerides (Triglycerides, mean): 161* μg mL^−1 | C18:1t concentration, Triglycerides (Triglycerides, mean): 6.1 µg/mL | C18:2n6 concentration, Triglycerides (Triglycerides, mean): 42.6** μg mL^−1 | C18:2n6t concentration, Triglycerides (Triglycerides, mean): 9.0 µg/mL | C18:3n3 concentration, Triglycerides (Triglycerides, mean): 1.8 µg/mL | C18:3n6 concentration, Triglycerides (Triglycerides, mean): 0.7 µg/mL | C20:0 concentration, Triglycerides (Triglycerides, mean): 1.6 µg/mL | C20:1n9 concentration, Triglycerides (Triglycerides, mean): 5.6* μg mL^−1 | C20:2n6 concentration, Triglycerides (Triglycerides, mean): 1.7 µg/mL | C20:3n6 concentration, Triglycerides (Triglycerides, mean): 8.3 µg/mL | C20:4n6 concentration, Triglycerides (Triglycerides, mean): 2.5*** μg mL^−1 | C20:5n3 concentration, Triglycerides (Triglycerides, mean): 3.7** μg mL^−1 | C22:0 concentration, Triglycerides (Triglycerides, mean): 3.5 µg/mL | C22:4n6 concentration, Triglycerides (Triglycerides, mean): 2.5* μg mL^−1 | C22:5n3 concentration, Triglycerides (Triglycerides, mean): 49.9* μg mL^−1 | C22:5n6 concentration, Triglycerides (Triglycerides, mean): 2.5 µg/mL | C22:6n3 concentration, Triglycerides (Triglycerides, mean): 0.6** μg mL^−1 | C24:0 concentration, Triglycerides (Triglycerides, mean): 1.2 µg/mL | C24:1n9 concentration, Triglycerides (Triglycerides, mean): 2.3 µg/mL | Total fatty acids concentration, Triglycerides (Triglycerides, mean): 556* μg mL^−1 | C14:0 composition, Triglycerides [3]: 4.77* % | C16:0 composition, Triglycerides [3]: 24.2% | C16:1n7 composition, Triglycerides [3]: 1.10% | C16:1n7t composition, Triglycerides [3]: 0.12% | C18:0 composition, Triglycerides [3]: 14.5% | C18:1n9 composition, Triglycerides [3]: 29.0% | C18:1t composition, Triglycerides [3]: 1.09% | C18:2n6 composition, Triglycerides [3]: 7.68** % | C18:2n6t composition, Triglycerides [3]: 1.64* % | C18:3n3 composition, Triglycerides [3]: 0.33% | C18:3n6 composition, Triglycerides [3]: 0.13% | C20:0 composition, Triglycerides [3]: 0.28% | C20:1n9 composition, Triglycerides [3]: 1.01% | C20:2n6 composition, Triglycerides [3]: 0.31% | C20:3n6 composition, Triglycerides [3]: 1.5% | C20:4n6 composition, Triglycerides [3]: 0.46*** % | C20:5n3 composition, Triglycerides [3]: 0.67% | C22:0 composition, Triglycerides [3]: 0.63% | C22:4n6 composition, Triglycerides [3]: 0.45% | C22:5n3 composition, Triglycerides [3]: 8.98*** % | C22:5n6 composition, Triglycerides [3]: 0.45* % | C22:6n3 composition, Triglycerides [3]: 0.12*** % | C24:0 composition, Triglycerides [3]: 0.23% | C24:1n9 composition, Triglycerides [3]: 0.41% | EPA/AA, Cholesterol ester (Table 5.5) (ratio, Cholesterol ester): 0.039* | EPA/AA, Cholesterol ester (Table 5.6) (ratio, Cholesterol ester): 0.039* | EPA/AA, Free fatty acids (Table 5.5) (ratio, Free fatty acids): 2.94* | EPA/AA, Free fatty acids (Table 5.6) (ratio, Free fatty acids): 2.94* | EPA/AA, Phospholipids (Table 5.5) (ratio, Phospholipids): 0.038* | EPA/AA, Phospholipids (Table 5.6) (ratio, Phospholipids): 0.038 | EPA/AA, Total (Table 5.5) (ratio, Total lipids): 0.030** | EPA/AA, Total (Table 5.6) (ratio, Total lipids): 0.030** | EPA/AA, Triglycerides (Table 5.5) (ratio, Triglycerides): 1.51** | EPA/AA, Triglycerides (Table 5.6) (ratio, Triglycerides): 1.51**
